Experimental data published in patent US20060122189A1, “Phenylpiperazine derivatives with a combination of partial dopamine-D2 receptor agonism and serotonin reuptake inhibition” (priority 2004, published 2006).

Columns and labels:
serotonin reuptake sites = target: T1, serotonin reuptake sites (Rattus norvegicus, UniProt P31652); experiment: In vitro affinity for serotonin reuptake sites ([3H]-paroxetine binding); settings: read-out: 5-HT reuptake binding pKi (converted)
T1 construct: from tissue
T1 sequence (P31652 whole entry): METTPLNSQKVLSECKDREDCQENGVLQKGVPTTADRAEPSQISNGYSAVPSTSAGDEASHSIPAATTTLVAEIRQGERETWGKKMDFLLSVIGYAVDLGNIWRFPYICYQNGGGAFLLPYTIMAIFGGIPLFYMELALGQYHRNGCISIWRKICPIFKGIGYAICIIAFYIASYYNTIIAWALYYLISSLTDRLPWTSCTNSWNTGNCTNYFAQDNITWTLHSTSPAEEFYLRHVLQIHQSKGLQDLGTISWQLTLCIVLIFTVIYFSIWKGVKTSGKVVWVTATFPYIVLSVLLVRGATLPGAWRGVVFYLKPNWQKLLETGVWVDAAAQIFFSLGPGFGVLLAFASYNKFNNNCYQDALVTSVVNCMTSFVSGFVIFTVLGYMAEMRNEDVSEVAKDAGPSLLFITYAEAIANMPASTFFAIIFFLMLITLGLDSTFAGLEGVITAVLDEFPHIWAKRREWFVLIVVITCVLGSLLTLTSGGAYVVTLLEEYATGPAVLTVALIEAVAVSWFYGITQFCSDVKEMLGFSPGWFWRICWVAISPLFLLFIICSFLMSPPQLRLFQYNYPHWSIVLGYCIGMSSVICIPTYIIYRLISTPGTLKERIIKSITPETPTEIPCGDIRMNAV
Description: In Vitro Affinity for Serotonin Reuptake Sites
Affinity of the compounds for serotonin reuptake sites was determined using the receptor binding assay described by E. Habert et al.,: “Characterisation of [^3H]-paroxetine binding to rat cortical membranes”, Eur. J. Pharmacol., 118, 107-114, 1985.

[1] = target: T2, Human dopamine D2,L receptors (Homo sapiens, UniProt P14416); experiment: Inhibition of forskolin-induced [3H]-cAMP accumulation in CHO-K1 cells; format: cell-based; settings: cloned human dopamine D2,L receptors; full agonist ε=1, full antagonist ε=0
T2 construct: host or cells: CHO-K1
T2 sequence (P14416 whole entry): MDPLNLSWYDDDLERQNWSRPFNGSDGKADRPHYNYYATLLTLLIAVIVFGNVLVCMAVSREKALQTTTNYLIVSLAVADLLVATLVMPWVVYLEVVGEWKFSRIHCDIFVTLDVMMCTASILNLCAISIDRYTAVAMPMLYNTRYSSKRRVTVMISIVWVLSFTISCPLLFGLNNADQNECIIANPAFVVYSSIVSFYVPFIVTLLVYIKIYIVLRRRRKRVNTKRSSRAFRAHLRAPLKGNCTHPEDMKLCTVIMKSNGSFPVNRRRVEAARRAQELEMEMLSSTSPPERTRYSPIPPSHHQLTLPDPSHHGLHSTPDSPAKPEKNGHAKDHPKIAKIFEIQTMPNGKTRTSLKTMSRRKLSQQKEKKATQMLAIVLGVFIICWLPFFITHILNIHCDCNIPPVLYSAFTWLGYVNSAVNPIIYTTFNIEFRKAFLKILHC
Description: Inhibition of Forskolin-Induced [^3H]-cAMP Accumulation
The in vitro functional activity at dopamine-D2 receptors, including the intrinsic activity (E) of the compounds of the invention was measured by their ability to inhibit forskolin-induced [^3H]-cAMP accumulation.
Human dopamine D2,L receptors were cloned in fibroblast cell line CHO-K1′ cells and obtained from Dr. Grandy, Vollum Institute, Portland, Oreg., USA. CHO cells were grown in a Dulbecco's modified Eagle's medium (DMEM) culture medium, supplemented with 10% heat-inactivated fetal calf serum, 2 mM glutamine, 1 mM pyruvate, 5000 units/ml penicillin, 5000 μg/ml streptomycin and 200 μg/ml G-418 at 37° C. in 93% air/7% CO2. For incubation with test compounds, confluent cultures grown in 24 wells plates were used. Each condition or substance was routinely tested in quadruplicate. Cells were loaded with 1 μCi [^3H]-adenine in 0.5 ml medium/well. After 2 hours, cultures were washed with 0.5 ml PBS containing 1 mM of the phosphodiesterase inhibitor isobutylmethylxanthine (IBMX) and incubated for 20 min with 0.5 ml PBS containing 1 mM IBMX and forskolin with or without test compound. After aspiration the reaction was stopped with 1 ml trichloroacetic acid 5% (w/v). […] 0.8 ml Extract was passed over Dowex (50WX-4 200-400 mesh) and aluminumoxide columns, eluted with water and 0.1M imidazole (pH=7.5). Eluates were mixed with 7 ml Insta-gel and radioactivity was counted with a liquid scintillation counter. The conversion of [^3H]-ATP into [^3H]-cAMP was expressed as the ratio in percentage radioactivity in the cAMP fraction as compared to combined radioactivity in both cAMP and ATP fractions, and basal activity was subtracted to correct for spontaneous activity.
Test compounds were obtained as 10 mM stock solutions in 100% DMSO, and diluted in PBS/IBMX to final concentrations. Typically, compounds were used in concentrations that ranged from 10^−10M to 10^−5M. From quadruplicate data counts, the mean was taken as an estimate for drug-induced, receptor-mediated effects at specified second messenger accumulation, expressed as percentage of control values (forskolin-stimulated cAMP accumulation, subtracted by basal activity). By using the non-linear curve-fitting program INPLOT or the Excel-add-in XL-Fit, mean values were plotted against drug concentration (in molar) and a sigmoid curve (four-parameter logistic curve) was constructed. The maximal forskolin-induced stimulated conversion is taken as maximum value and the maximal inhibition (usually at drug concentrations 10^−4 M or 10^−5 M) as minimum and these values were fixed during the fitting process. Thus, concentrations of the compound, causing 50% of the maximally obtained inhibition of forskolin-induced cAMP accumulation (EC50), are averaged over several experiments and presented as mean pEC50±SEM. Antagonist potency is assessed by co-incubating cells with a fixed agonist concentration and specified antagonist concentrations. Curve fitting procedures are identical to those used for estimating EC50 values. Thus IC50 values, i.e. the concentration that is able to achieve 50% of maximal antagonism that can be achieved by this compound. IC50 values are corrected using a Cheng-Prussoff equation, correcting it for agonist concentration and EC50 values that is obtained in the same experiment. Thus, Kb=IC50/(1+[agonist]/EC50, agonist). The corresponding pA2 value is −log (Kb). Concentration-response curve fitting allows estimation of pEC50 values and of maximal achievable effect (intrinsic activity or efficacy (ε). A full receptor agonist has ε=1, a full receptor antagonist has ε=0, and a partial receptor agonist has an intermediate intrinsic activity.

Structure (SMILES): Cn1c(=O)oc2c(N3CCN(CCCCc4csc5ccc(C#N)cc45)CC3)cccc21 [Compound 94]
- Ki (serotonin reuptake sites): 3.16 nM
- Dopamine-D2 cAMP accum ε (intrinsic activity) [1]: 0.70
- melting point: 184 to 186 °C

Structure (SMILES): O=c1[nH]c2cccc(N3CCN(CCCCn4ccc5ccc(F)cc54)CC3)c2o1 [Compound 16]
- Ki (serotonin reuptake sites): 0.794 nM
- Dopamine-D2 cAMP accum ε (intrinsic activity) [1]: 0.73
- melting point: 143 to 145 °C

Structure (SMILES): O=c1[nH]c2cccc(N3CCN(CCCc4csc5ccc(Cl)cc45)CC3)c2o1 [Compound 7]
- Ki (serotonin reuptake sites): 3.16 nM
- Dopamine-D2 cAMP accum ε (intrinsic activity) [1]: 0.39
- melting point: 211 to 213 °C

Structure (SMILES): N#Cc1ccc2occ(CCCCN3CCN(c4cccc5[nH]c(=O)oc45)CC3)c2c1 [Compound 6]
- Ki (serotonin reuptake sites): 0.158 nM
- Dopamine-D2 cAMP accum ε (intrinsic activity) [1]: 0.85
- melting point: 180 to 182 °C

Structure (SMILES): Cn1c(=O)oc2c(N3CCN(CCC#Cc4ccc5ccc(F)cc5c4)CC3)cccc21 [Compound 135]
- Ki (serotonin reuptake sites): 2 nM
- Dopamine-D2 cAMP accum ε (intrinsic activity) [1]: 0.45

Structure (SMILES): O=c1[nH]c2cccc(N3CCN(CCCc4csc5ccc(F)cc45)CC3)c2o1 [Compound 8]
- Ki (serotonin reuptake sites): 1.26 nM
- Dopamine-D2 cAMP accum ε (intrinsic activity) [1]: 0.10
- melting point: 193 to 195 °C
